Measurements: patent publication US11660319B2, “Compositions comprising bacterial strains” (priority 2017, dated 2023)

Columns and labels:
HDAC = HDAC inhibition on whole HT-29 cells and HT-29 cell lysate; format: cell-based; details: HT-29, whole cells or lysate not told apart in the sentence
Procedure: Bacterial culture and cell-free supernatant collection Pure cultures of bacteria were grown anaerobically in YCFA broth until they reached their stationary growth phase. Cultures were centrifuged at 5,000×g for 5 minutes and the cell-free supernatant (CFS) was filtered using a 0.2 μM filter (Millipore, UK). 1 mL aliquots of the CFS were stored at −80° C. until use. Sodium butyrate, hexanoic and valeric acid were obtained from Sigma Aldrich (UK) and suspensions were prepared in YCFA broth.
To investigate which metabolites were responsible for the strain-induced HDAC inhibition, different concentrations of hexanoic acid, valeric acid and sodium butyrate were measured for their HDAC inhibition on whole HT-29 cells and on HT-29 cell lysate.

Class I HDACs = test: Specific HDAC activity analysis, Class I HDACs overall; format: biochemical
Procedure: Specific HDAC inhibition activity was analysed for HDAC1, 2, 3, 4, 5, 6, 9 using fluorogenic assay kits for each type of HDAC (BPS Bioscience, CA). Assays were conducted according to manufacturer's instructions and each sample were performed in replicates. Cell free supernatants were diluted 1 in 10 and exposed to specific HDAC proteins provided in the kit to maintain consistency between methods.
The specific HDAC inhibition profile of the test bacteria strain was investigated. Specific HDAC inhibition assays (BPS Bioscience, CA) were carried out for Class I and Class II HDACs. The ability of the bacterial strain to inhibit HDAC enzymes was compared to butyrate, hexanoic and valeric acid (FIGS. 14 and 15).

CCCCC(=O)O [valeric acid]
total HDAC activity, pure substances (HDAC): significant HDAC inhibition
total HDAC activity, pure substances (HDAC; listed as Valeric acid): inhibited
Inhibition of Class I HDACs (Class I HDACs): class 1 HDAC inhibitor
